Assay results published in EP1247803A2, “Indolinone compounds suitable for modulation of protein kinases” (Sugen, Inc., priority 1996, dated 1998).

What was measured:
[1] = biological target: T1, EGFR (Homo sapiens, UniProt P00533); assay: EGFR ELISA assay (in vitro kinase activity, EGFR captured from A431 cell lysate); type: biochemical; design: concentration or dose not given beside the values
T1 construct: Add 7 ug A431 cell lysate per well (EGFR source); endogenous in cells; host or cells: A431
Method in brief: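 Receptor autophosphorylation was read by ELISA: anti-phosphotyrosine serum and an HRP-linked secondary with ABTS substrate, absorbance at 410 nm (reference 630 nm). The reaction ran 5 min with 3 µM ATP and 5 mM MnCl2 and was quenched by 20 mM EDTA. Compounds were first incubated 30 min with antibody-captured EGFR from A431 cell lysate.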

[2] = system: MET; assay: MET biochemical kinase assay; design: species or system human; concentration or dose not given beside the values
Method in brief: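 Human MET was captured from cell lysates onto ELISA plates via goat anti-rabbit Fc and rabbit polyclonal antibody to the MET cytoplasmic domain. After washing, test compounds and kinase buffer with ATP and divalent metal ions were added. Phosphotyrosine was detected with HRP-conjugated anti-phosphotyrosine antibody and TMB colorimetric read-out.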

T1 sequence (P00533 25-1210): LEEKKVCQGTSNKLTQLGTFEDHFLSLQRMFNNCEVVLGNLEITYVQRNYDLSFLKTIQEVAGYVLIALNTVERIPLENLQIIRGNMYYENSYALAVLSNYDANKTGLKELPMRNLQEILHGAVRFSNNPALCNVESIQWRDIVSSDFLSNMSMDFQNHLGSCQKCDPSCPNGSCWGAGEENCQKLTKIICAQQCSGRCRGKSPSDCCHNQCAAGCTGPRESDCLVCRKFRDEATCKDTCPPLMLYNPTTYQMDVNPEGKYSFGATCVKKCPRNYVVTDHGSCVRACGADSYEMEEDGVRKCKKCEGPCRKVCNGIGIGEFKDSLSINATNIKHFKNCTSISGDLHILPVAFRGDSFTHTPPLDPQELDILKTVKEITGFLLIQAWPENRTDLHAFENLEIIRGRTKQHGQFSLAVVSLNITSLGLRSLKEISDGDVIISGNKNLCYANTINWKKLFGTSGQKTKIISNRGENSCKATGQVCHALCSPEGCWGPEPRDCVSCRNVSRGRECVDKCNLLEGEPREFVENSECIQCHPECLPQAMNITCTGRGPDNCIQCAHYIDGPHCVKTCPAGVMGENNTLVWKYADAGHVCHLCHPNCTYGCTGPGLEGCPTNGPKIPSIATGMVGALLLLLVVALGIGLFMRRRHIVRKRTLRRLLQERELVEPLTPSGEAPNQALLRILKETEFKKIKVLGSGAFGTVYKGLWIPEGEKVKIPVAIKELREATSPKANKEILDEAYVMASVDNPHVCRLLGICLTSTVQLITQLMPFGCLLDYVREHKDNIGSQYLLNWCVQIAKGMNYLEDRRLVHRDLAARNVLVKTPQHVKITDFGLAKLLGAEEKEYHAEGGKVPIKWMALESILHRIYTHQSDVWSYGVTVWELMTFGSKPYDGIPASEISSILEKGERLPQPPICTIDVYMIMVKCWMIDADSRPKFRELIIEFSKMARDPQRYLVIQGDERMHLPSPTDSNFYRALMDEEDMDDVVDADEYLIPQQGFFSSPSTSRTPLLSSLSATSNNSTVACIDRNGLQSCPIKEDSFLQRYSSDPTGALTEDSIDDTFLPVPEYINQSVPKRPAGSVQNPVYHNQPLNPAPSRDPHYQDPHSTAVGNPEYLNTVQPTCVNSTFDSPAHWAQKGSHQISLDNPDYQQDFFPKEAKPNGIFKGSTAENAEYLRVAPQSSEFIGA

SMILES	Biochem EGFR %Inhibition [1]	Met Kinase % Inhibition [2]
Cc1ccc(C=C2C(=O)Nc3ccc(I)cc32)s1 [10717/B07]	58.3%	90.0%
O=C1Nc2ccc(I)cc2C1=Cc1ccc(Br)cc1 [10717/B08]	60.5%	88.8%
O=C1Nc2ccc(I)cc2C1=Cc1ccc[nH]1 [10717/B09]	78.3%	88.8%
COc1cccc(O)c1C=C1C(=O)Nc2ccc(I)cc21 [10717/B10]	16.1%	56.1%
Cc1[nH]c(C=C2C(=O)Nc3ccc(I)cc32)c(Br)c1Br [10717/B11]	82.7%	91.0%
CCOc1ccccc1C=C1C(=O)Nc2ccc(Br)c(C)c21 [10717/C02]	-0.4%	29.7%
Cc1c(Br)ccc2c1C(=Cc1cccs1)C(=O)N2 [10717/C03]	18.0%	25.3%
Cc1c(Br)ccc2c1C(=Cc1cccc([N+](=O)[O-])c1)C(=O)N2 [10719/C10]	10.7%	7.9%
Cc1c(Br)ccc2c1C(=Cc1ccc(F)cc1C(F)(F)F)C(=O)N2 [10719/C11]	-25.7%	-5.1%
CCOc1ccc(C=C2C(=O)Nc3ccc(S(=O)(=O)NC)cc32)cc1OC [10719/D02]	9.8%	27.5%
CNS(=O)(=O)c1ccc2c(c1)C(=Cc1ccc(O)c(O)c1)C(=O)N2 [10719/D03]	95.7%	93.2%
CNS(=O)(=O)c1ccc2c(c1)C(=Cc1ccc(OC)cc1OC)C(=O)N2 [10719/D04]	15.3%	28.9%
CCc1c(C)[nH]c(C=C2C(=O)Nc3ccc(S(=O)(=O)NC)cc32)c1C [10719/D05]	18.5%	71.8%
CNS(=O)(=O)c1ccc2c(c1)C(=Cc1c(OC)cc(OC)cc1OC)C(=O)N2 [10719/D06]	-12.2%	11.2%
CNS(=O)(=O)c1ccc2c(c1)C(=Cc1ccc(O)cc1)C(=O)N2 [10719/D07]	13.7%	41.5%
CNS(=O)(=O)c1ccc2c(c1)C(=Cc1ccc(N(C)C)cc1)C(=O)N2 [10719/D08]	-12.2%	45.2%
CNS(=O)(=O)c1ccc2c(c1)C(=Cc1ccc(F)cc1Cl)C(=O)N2 [10719/D09]	-3.1%	13.0%
CNS(=O)(=O)c1ccc2c(c1)C(=Cc1cccc([N+](=O)[O-])c1)C(=O)N2 [10719/D10]	-11.8%	22.3%
CCOc1ccc(C=C2C(=O)Nc3ccc(S(=O)(=O)Nc4ccc(C(F)(F)F)cc4)cc32)cc1OC [10719/E02]	40.0%	35.7%
O=C1Nc2ccc(S(=O)(=O)Nc3ccc(C(F)(F)F)cc3)cc2C1=Cc1ccc(O)c(O)c1 [10719/E03]	73.0%	87.2%

SMILES	Biochem EGFR %Inhibition [1]	Met Kinase % Inhibition [2]
COc1ccc(C=C2C(=O)Nc3ccc(S(=O)(=O)Nc4ccc(C(F)(F)F)cc4)cc32)c(OC)c1 [10719/E04]	-7.4%	3.1%
CCc1c(C)[nH]c(C=C2C(=O)Nc3ccc(S(=O)(=O)Nc4ccc(C(F)(F)F)cc4)cc32)c1C [10719/E05]	21.2%	39.0%
COc1cc(OC)c(C=C2C(=O)Nc3ccc(S(=O)(=O)Nc4ccc(C(F)(F)F)cc4)cc32)c(OC)c1 [10719/E06]	-42.0%	-4.5%
O=C1Nc2ccc(S(=O)(=O)Nc3ccc(C(F)(F)F)cc3)cc2C1=Cc1ccc(O)cc1 [10719/E07]	-18.4%	55.5%
CN(C)c1ccc(C=C2C(=O)Nc3ccc(S(=O)(=O)Nc4ccc(C(F)(F)F)cc4)cc32)cc1 [10719/E08]	36.8%	80.0%
O=C1Nc2ccc(S(=O)(=O)Nc3ccc(C(F)(F)F)cc3)cc2C1=Cc1ccc(F)cc1Cl [10719/E09]	-33.1%	36.1%
O=C1Nc2ccc(S(=O)(=O)Nc3ccc(C(F)(F)F)cc3)cc2C1=Cc1cccc([N+](=O)[O-])c1 [10719/E10]	-32.4%	40.2%
O=C1Nc2ccc(S(=O)(=O)Nc3ccc(C(F)(F)F)cc3)cc2C1=Cc1ccc(F)cc1C(F)(F)F [10719/E11]	-51.8%	28.5%
CCOc1ccc(C=C2C(=O)Nc3ccc(S(=O)(=O)N4CCOCC4)cc32)cc1OC [10719/F02]	14.8%	28.1%
O=C1Nc2ccc(S(=O)(=O)N3CCOCC3)cc2C1=Cc1ccc(O)c(O)c1 [10719/F03]	-30.8%	89.5%
COc1ccc(C=C2C(=O)Nc3ccc(S(=O)(=O)N4CCOCC4)cc32)c(OC)c1 [10719/F04]	-6.0%	3.3%
CCc1c(C)[nH]c(C=C2C(=O)Nc3ccc(S(=O)(=O)N4CCOCC4)cc32)c1C [10719/F05]	35.0%	63.1%
COc1cc(OC)c(C=C2C(=O)Nc3ccc(S(=O)(=O)N4CCOCC4)cc32)c(OC)c1 [10719/F06]	-26.0%	-22.0%
O=C1Nc2ccc(S(=O)(=O)N3CCOCC3)cc2C1=Cc1ccc(O)cc1 [10719/F07]	20.1%	36.7%
CN(C)c1ccc(C=C2C(=O)Nc3ccc(S(=O)(=O)N4CCOCC4)cc32)cc1 [10719/F08]	90.9%	75.7%
O=C1Nc2ccc(S(=O)(=O)N3CCOCC3)cc2C1=Cc1ccc(F)cc1Cl [10719/F09]	-17.7%	19.2%
O=C1Nc2ccc(S(=O)(=O)N3CCOCC3)cc2C1=Cc1cccc([N+](=O)[O-])c1 [10719/F10]	-17.7%	30.8%
O=C1Nc2ccc(S(=O)(=O)N3CCOCC3)cc2C1=Cc1ccc(F)cc1C(F)(F)F [10719/F11]	-66.3%	8.7%
CCOc1ccc(C=C2C(=O)Nc3ccc(CCCl)cc32)cc1OC [10719/G02]	-12.2%	-2.4%
O=C1Nc2ccc(CCCl)cc2C1=Cc1ccc(O)c(O)c1 [10719/G03]	89.5%	87.6%

SMILES	Biochem EGFR %Inhibition [1]	Met Kinase % Inhibition [2]
COc1ccc(C=C2C(=O)Nc3ccc(CCCl)cc32)c(OC)c1 [10719/G04]	-4.7%	-8.2%
CCc1c(C)[nH]c(C=C2C(=O)Nc3ccc(CCCl)cc32)c1C [10719/G05]	4.0%	15.9%
COc1cc(OC)c(C=C2C(=O)Nc3ccc(CCCl)cc32)c(OC)c1 [10719/G06]	-45.7%	-18.1%
O=C1Nc2ccc(CCCl)cc2C1=Cc1ccc(O)cc1 [10719/G07]	-8.1%	24.0%
CN(C)c1ccc(C=C2C(=O)Nc3ccc(CCCl)cc32)cc1 [10719/G08]	65.4%	39.4%
O=C1Nc2ccc(CCCl)cc2C1=Cc1ccc(F)cc1Cl [10719/G09]	-32.8%	1.3%
O=C1Nc2ccc(CCCl)cc2C1=Cc1cccc([N+](=O)[O-])c1 [10719/G10]	-27.6%	35.5%
O=C1Nc2ccc(CCCl)cc2C1=Cc1ccc(F)cc1C(F)(F)F [10719/G11]	-44.1%	24.0%
O=C1Nc2c(Br)cc(Br)cc2C1=Cc1c(F)cc(F)cc1F [10720/A02]	11.3%	45.2%
COc1cc(O)ccc1C=C1C(=O)Nc2c(Br)cc(Br)cc21 [10720/A03]	-5.3%	58.2%
COc1ccc(C=C2C(=O)Nc3c(Br)cc(Br)cc32)cc1OC [10720/A04]	-1.8%	62.3%
O=C1Nc2c(Br)cc(Br)cc2C1=Cc1ccccc1O [10720/A05]	-4.4%	43.4%
O=C1Nc2c(Br)cc(Br)cc2C1=Cc1ccccc1 [10720/A06]	44.7%	63.6%
CSc1ccc(C=C2C(=O)Nc3c(Br)cc(Br)cc32)s1 [10720/A07]	42.5%	57.2%
Cc1cc(O)cc(O)c1C=C1C(=O)Nc2c(Br)cc(Br)cc21 [10720/A08]	-23.2%	77.9%
CCOc1cc(C=C2C(=O)Nc3c(Br)cc(Br)cc32)ccc1O [10720/A09]	8.6%	75.4%
COc1ccc(O)c(C=C2C(=O)Nc3c(Br)cc(Br)cc32)c1 [10720/A10]	-2.7%	68.4%
O=C1Nc2c(Br)cc(Br)cc2C1=Cc1ncc[nH]1 [10720/A11]	-23.2%	58.7%
O=C1Nc2ccc(I)cc2C1=Cc1c(F)cc(F)cc1F [10720/B02]	18.4%	38.8%
COc1cc(O)ccc1C=C1C(=O)Nc2ccc(I)cc21 [10720/B03]	32.3%	53.3%
